According to article PMC6817585, “Simultaneous Determination of Five Alkaloids by HPLC-MS/MS Combined With Micro-SPE in Rat Plasma and Its Application to Pharmacokinetics After Oral Administration of Lotus Leaf Extract” (Frontiers in Pharmacology, 2019):
Blank lines part the entries; values can stand above or below the compound they belong to.

Columns and labels:
[1] = Pharmacokinetics of five alkaloids in rat plasma after oral administration of lotus leaf extract; type: in vivo, Male Sprague-Dawley rats; settings: rat, in vivo, po
Protocol: All analyses were performed on Agilent 1200 HPLC system (Agilent Corporation, USA) and API 3200 triple-quadrupole mass spectrometer (Concord, Ontario, Canada) in multiple-reaction monitoring (MRM) with positive ionization mode. Acetonitrile (A) and formic acid aqueous solution (B) (0.1%, v/v) is used to separate the analytes on Eclipse plus C18 column (4.6 mm × 100 mm, 1.8 µm) with a guard C18 column (2.1 mm × 12.5 mm, 5 µm). The gradient of elution is as follows: 5%–60% A at 0 to 4 min, 60%–70% A at 4 to 5 min, 70%–93% A at 5 to 7 min, 93%–94% A at 7 to 11 min, 94%–5% A at 11 to 12 min, and 5%–5% A at 12 to 17 min. The flow rate and injection volume are 0.3 ml·min^-1 and 5 µl, respectively. The main parameters of ion source including the ion spray voltage, the curtain gas, and temperature are set at 5000 V, 35 psi, and 450°C, respectively.
The real plasma sample (100 µl) and IS solution (10 µl) were vortex-mixed for 1 min. The sample was carried out with the SPE column (Cleanert PEP-2, 40–60 µm, 60 Å, 10 mg/1 ml; Phenomenex, Torrance, CA, USA). First, SPE columns were activated by 50% methanol in water (1 ml) and 0.1% formic acid in water (1 ml) and were used to activate the SPE column in sequence. Second, columns were washed with 200 µl methanol (20%, v/v) and eluted with acetonitrile (400 µl) after the plasma samples were added. Finally, the eluent was centrifuged for 10 min with 14,000 rpm. Then final solutions were injected into the HPLC-MS/MS and analyzed.
The pharmacokinetic study was conducted in accordance with the Guidelines for the Care and Use of Laboratory Animals by the US National Institutes of Health and approved by the Animal Ethics Committee of Tianjin University of Traditional Chinese Medicine (permit number: TCM-LAEC2019022, Tianjin, China),. Male Sprague-Dawley rats (240–260 g) were fed in the animal laboratory of the Tianjin University of Traditional Chinese Medicine under the standard conditions. These rats were allowed free to get standard laboratory food and water and conformed for 1 week until 12 h before experiment. These rats (n = 10) were fasted, although they were still given water for 12 h, before the oral administration of lotus leaf extract. […] The plasma samples were centrifuged in 10 min at 7000 rpm and kept at −20°C until analyzed.
All of the pharmacokinetic parameters were calculated by one compartment model with DAS 1.0 software (Medical College of Wannan). The maximum drug concentration (Cmax) and the time to reach Cmax (Tmax) were acquired from observed concentration–time profile for oral administration in plasma. All data were shown as mean ± SD.

[2] = Stability of stock and working solutions; type: physicochemical; settings: for Remain, working solution: n = 6
Protocol: (§1) The stabilities (including auto-sampler, freeze–thaw cycles, and short-time and long-term stability) of all analytes were obtained by testing QC samples of four concentrations. Moreover, the stabilities for stock and working solution were assessed with mixed standard substance (100 ng·ml^−1) and the QC sample solutions of four concentration levels, respectively. These solutions were achieved by diluting stock solutions kept at 4°C for 2 weeks. For IS, the evaluated procedures of two stabilities were same as the five alkaloids.

[3] = Stability of analytes in rat plasma QC samples (auto-sampler, freeze-thaw, short-time, long-term); type: in vitro ADME; settings: rat, plasma
Protocol: as §1

AUC ([1]; male, Sprague-Dawley, 2.4 g/kg): 28.6 ± 16.5 ng·h/mL
AUC(0-inf) ([1]; male, Sprague-Dawley, 2.4 g/kg): 53.8 ± 34.6 ng·h/mL
Cmax ([1]; male, Sprague-Dawley, 2.4 g/kg): 8.78 ± 7.78 ng/mL
MRT ([1]; male, Sprague-Dawley, 2.4 g/kg): 7.23 ± 1.93 h
MRT inf ([1]; male, Sprague-Dawley, 2.4 g/kg): 31.9 ± 25.9 h
Tmax ([1]; male, Sprague-Dawley, 2.4 g/kg): 0.3 ± 0.11 h
half-life ([1]; male, Sprague-Dawley, 2.4 g/kg): 5.22 ± 5.09 h
Absorption after orally administrating the lotus leaf extract (in words) [1]: fast absorption
Remain, working solution ([2]; 1 ng/ml): 98.8%
Remain, working solution ([2]; 20 ng/ml): 95.8%
Remain, working solution ([2]; 100 ng/ml): 101%
Remain, working solution ([2]; concentration LLOQ, from stock kept at 4°C for 2 weeks): 96.3%
Remain, freeze thaw cycles [3]: 103%
Remain, freeze thaw cycles ([3]; 1 ng/ml): 107%
Remain, freeze thaw cycles ([3]; 20 ng/ml): 111%
Remain, freeze thaw cycles ([3]; 100 ng/ml): 85.2%
Remain, −80°C for 1 month [3]: 109%
Remain, −80°C for 1 month ([3]; 1 ng/ml): 107%
Remain, −80°C for 1 month ([3]; 20 ng/ml): 113%
Remain, −80°C for 1 month ([3]; 100 ng/ml): 107%
Remain, autosampler for 24 h [3]: 87.6%
Remain, room temperature for 24 h [3]: 91.5%
Remain, autosampler for 24 h ([3]; 1 ng/ml): 90.8%
Remain, room temperature for 24 h ([3]; 1 ng/ml): 104%
Remain, autosampler for 24 h ([3]; 20 ng/ml): 114%
Remain, room temperature for 24 h ([3]; 20 ng/ml): 118%
Remain, autosampler for 24 h ([3]; 100 ng/ml): 87.4%
Remain, room temperature for 24 h ([3]; 100 ng/ml): 110%
Structure (SMILES): COc1cc2c(cc1OC)C(Cc1ccc(O)cc1)N(C)CC2 (centres unmarked) [Armepavine, armepavine]

Remain, stock solution ([2]; stock solution kept at 4°C for 2 weeks): 114%
Structure (SMILES): COc1cc2c(cc1OC)-c1cc3ccc(OC)c(OC)c3c[n+]1CC2 [IS, palmatine chloride, reference compound]
